Where two headings read alike, the source gives them in different places.
Key:
TYK2-JH2 domain = molecular target: T1, TYK2-JH2 domain (Homo sapiens, UniProt P29597); experiment: Binding activity test for JH2 domain of TYK2 (Tb-antibody/tracer FRET)
T1 construct: JAK1-JH2 domain or TYK2-JH2 domain enzyme in assay buffer
Outline: (§1)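 Competitive TR-FRET binding: compounds dispensed as an 11-point 3-fold dilution series, then Tb-labelled antibody and tracer added to the JH2 protein system. Incubated at 25°C, then overnight at 4°C; FRET signal read on Envision and IC50 (nM) derived.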

JAK1-JH2 domain = molecular target: T2, JAK1-JH2 domain (Homo sapiens, UniProt P23458); experiment: Binding activity test for JH2 domain of JAK1 (Tb-antibody/tracer FRET)
T2 construct: JAK1-JH2 domain or TYK2-JH2 domain enzyme in assay buffer
Outline: as §1

[1] = system: Ba/F3-FL-TYK2-P760L cells; experiment: Anti-proliferative assay in engineered Ba/F3 cells (Cell-Titer Glo, 72 h); type: cell-based; conditions: Mus musculus, concentration that causes 50% growth inhibition, read-out: Baf3-FL-T2P760L
Outline: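 Ba/F3 cells carrying Tel-dimerization/JAK kinase fusion, IL-3-independent, in RPMI-1640 + 10% FBS; 9-point 3-fold dilutions from 20 µM (0.1% DMSO) added after 24 h, 72 h at 37 °C. Viability by Cell-Titer Glo ATP luminescence; % inhibition versus DMSO cells, blank-corrected, giving IC50.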

[2] = JH2 domain enzyme; 60 min at 25°C, then 4°C overnight; read-out: TYK2 JH2 Binding IC50
[3] = ratio of JAK1 JH2 to TYK2 JH2 binding IC50
[4] = JH2 domain enzyme; 60 min at 25°C, then 4°C overnight; read-out: JAK1 JH2 Binding IC50
[5] = BaF3, 72 h, 72 h compound treatment

T2 sequence (P23458 583-855 limits assumed): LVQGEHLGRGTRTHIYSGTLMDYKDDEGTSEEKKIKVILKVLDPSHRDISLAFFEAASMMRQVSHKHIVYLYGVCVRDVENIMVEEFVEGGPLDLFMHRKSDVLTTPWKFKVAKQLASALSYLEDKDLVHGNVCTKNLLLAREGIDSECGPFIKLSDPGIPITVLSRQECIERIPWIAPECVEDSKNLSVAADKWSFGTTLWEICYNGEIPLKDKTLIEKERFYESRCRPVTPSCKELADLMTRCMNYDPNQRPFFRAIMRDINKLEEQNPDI
T1 sequence (P29597 589-875 limits assumed): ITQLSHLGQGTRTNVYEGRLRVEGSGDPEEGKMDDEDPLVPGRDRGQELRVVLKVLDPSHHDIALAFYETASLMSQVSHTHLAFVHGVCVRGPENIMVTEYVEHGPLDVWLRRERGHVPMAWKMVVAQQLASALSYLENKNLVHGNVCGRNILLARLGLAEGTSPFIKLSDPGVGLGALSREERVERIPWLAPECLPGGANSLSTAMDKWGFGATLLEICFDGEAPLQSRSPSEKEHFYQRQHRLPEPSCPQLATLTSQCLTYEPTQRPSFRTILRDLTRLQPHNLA

Row | Compound | IC50 (TYK2-JH2 domain; [2]) [nM] | JAK1/TYK2 selectivity (TYK2-JH2 domain; [3]) | IC50 (JAK1-JH2 domain; [4]) [nM] | IC50 [1, 5] [nM] | IC50 ([1]; BaF3, 72 h compound treatment) [nM] | IC50 (TYK2-JH2 domain; read-out: TYK2 JH2 Binding IC50; JH2 domain enzyme; 60 min at 25°C, then 4°C overnight) [nM] | IC50 (JAK1-JH2 domain; read-out: JAK1 JH2 Binding IC50; JH2 domain enzyme; 60 min at 25°C, then 4°C overnight) [nM]
1 | [2H]C([2H])([2H])CC(=O)c1cnc(NC(=O)C2CC2)cc1Nc1nc2ccc(N3CC(OC)C3)cn2n1 [Example 64, N-[4-[[6-(3-methoxyazetidin-1-yl)-[1,2,4]triazolo[1,5-a]pyridin-2-yl]amino]-5-(3,3,3-trideuteriopropanoyl)-2-pyridyl]cyclopropanecarboxamide] | 0.141 | 246 | 34.7 | 13 | – | – | –
2 | COc1c([C@H](OC)C(F)(F)F)ccc2c1c(Nc1cc(NC(=O)C3CC3)ncc1C(=O)O)nn2C [Example 77, (S)-6-(Cyclopropanecarboxamido)-4-((4-methoxy-1-methyl-5-(2,2,2-trifluoro-1-methoxyethyl)-1H-indazol-3-yl)amino)nicotinic acid] | 0.08 | 2307.96 | 185 | > 1000 | – | – | –
3 | [2H]C([2H])([2H])OC(=O)c1cnc(NC(=O)C2CC2)cc1Nc1cnn2ccc([C@H](OC)C(F)(F)F)c(OC)c12 [Example 79, Methyl-d3 (S)-6-(cyclopropanecarboxamido)-4-((4-methoxy-5-(2,2,2-trifluoro-1-methoxyethyl)pyrazolo[1,5-a]pyridin-3-yl)amino)nicotinate] | 0.28 | 150.32 | 42.7 | 109 | – | – | –
4 | [2H]C([2H])([2H])OC(=O)c1cnc(NC(=O)C2CC2)cc1Nc1cnn2ccc([C@H](OC([2H])([2H])[2H])C(F)(F)F)c(OC)c12 [Example 80, Methyl-d3 (S)-6-(cyclopropanecarboxamido)-4-((4-methoxy-5-(2,2,2-trifluoro-1-(methoxy-d3)ethyl)pyrazolo[1,5-a]pyridin-3-yl)amino)nicotinate] | 0.26 | 176.08 | 46 | 88.9 | – | – | –
5 | [2H]C([2H])([2H])OC(=O)c1cnc(NC(=O)C2CC2)cc1Nc1ncn2ncc(C(OC)C(F)(F)F)c2c1OC (centres unmarked) [Example 81, Methyl-d3 6-(cyclopropanecarboxamido)-4-((4-methoxy-3-(2,2,2-trifluoro-1-methoxyethyl)pyrazolo[1,5-c]pyrimidin-5-yl)amino)nicotinate] | 4.02 | >74.25 | > 298 | 306 | – | – | –
6 | CCOC(=O)c1cnc(NC(=O)C2CC2)cc1Nc1cnn2ccc([C@H](O)C(F)(F)F)c(OC)c12 [Example 83, (S)-ethyl 6-(cyclopropanecarboxamido)-4-((4-methoxy-5-(2,2,2-trifluoro-1-hydroxyethyl)pyrazolo[1,5-a]pyridin-3-yl)amino)nicotinate] | 0.76 | >393.28 | > 298 | 173 | – | – | –
7 | [2H]C([2H])([2H])NC(=O)c1cnc(NC(=O)C2CC2)cc1Nc1cnn2ccc(C(O)(C(F)(F)F)C(F)(F)F)c(OC)c12 [Example 84, 6-(Cyclopropanecarboxamido)-4-((5-(1,1,1,3,3,3-hexafluoro-2-hydroxypropan-2-yl)-4-methoxypyrazolo[1,5-a]pyridin-3-yl)amino)-N-(methyl-d3)nicotinamide] | 4.24 | >70.42 | > 298 | – | 634 | – | –
8 | COC(=O)c1nnc(NC(=O)C2CC2)cc1Nc1cccc(-c2ncn(C)n2)c1OC [Example 85, Methyl 6-(cyclopropanecarboxamido)-4-((2-methoxy-3-(1-methyl-1H-1,2,4-triazol-3-yl)phenyl)amino)pyridazine-3-carboxylate] | 198 | >1.51 | > 298 | > 5000 | – | – | –
9 | [2H]C([2H])([2H])NC(=O)c1nnc(NC(=O)C2CC2)cc1Nc1cccc(-c2ncn(C)n2)c1C(C)=O [Example 87, 4-((2-Acetyl-3-(1-methyl-1H-1,2,4-triazol-3-yl)phenyl)amino)-6-(cyclopropanecarboxamido)-N-(methyl-d3)pyridazine-3-carboxamide] | > 298 | – | > 298 | 1860 | – | – | –
10 | CCOC(=O)c1cnc(NC(=O)C2CC2)cc1Nc1cnn2ccc([C@H](OC)C(F)(F)F)c(OC)c12 [Example 88, Ethyl (S)-6-(cyclopropanecarboxamido)-4-((4-methoxy-5-(2,2,2-trifluoro-1-methoxyethyl)pyrazolo[1,5-a]pyridin-3-yl)amino)nicotinate] | 1.7 | >175.18 | > 298 | 719 | – | – | –
11 | [2H]C([2H])([2H])NC(=O)c1nnc(NC(=O)C2CC2)cc1Nc1cccc(-c2ncn(C)n2)c1C(C)O (centres unmarked) [Example 89, 6-(Cyclopropanecarboxamido)-4-((2-(1-hydroxyethyl)-3-(1-methyl-1H-1,2,4-triazol-3-yl)phenyl)amino)-N-(methyl-d3)pyridazine-3-carboxamide] | > 298 | – | > 298 | > 5000 | – | – | –
12 | COc1c([C@H](OC)C(F)(F)F)ccn2ncc(Nc3cc(NC(=O)C4CC4)ncc3C(O)C(F)(F)F)c12 (stereo partly drawn) [Example 90, N-(4-((4-methoxy-5-((S)-2,2,2-trifluoro-1-methoxyethyl)pyrazolo[1,5-a]pyridin-3-yl)amino)-5-(2,2,2-trifluoro-1-hydroxyethyl)pyridin-2-yl)cyclopropanecarboxamide] | > 298 | – | > 298 | > 5000 | – | – | –
13 | COc1c([C@H](OC)C(F)(F)F)ccn2ncc(Nc3cc(NC(=O)C4CC4)ncc3C(=O)CC#N)c12 [Example 91, (S)-N-(5-(2-cyanoacetyl)-4-((4-methoxy-5-(2,2,2-trifluoro-1-methoxyethyl)pyrazolo[1,5-a]pyridin-3-yl)amino)pyridin-2-yl)cyclopropanecarboxamide] | 5.24 | >56.93 | > 298 | 1380 | – | – | –
14 | COc1c([C@H](OC)C(F)(F)F)ccn2ncc(Nc3cc(NC(=O)C4CC4)ncc3C(O)CC#N)c12 (stereo partly drawn) [Example 92, N-(5-(2-cyano-1-hydroxyethyl)-4-((4-methoxy-5-((S)-2,2,2-trifluoro-1-methoxyethyl)pyrazolo[1,5-a]pyridin-3-yl)amino)pyridin-2-yl)cyclopropanecarboxamide] | 26.5 | 3.00 | 79.6 | 878 | – | – | –
15 | COC(=O)c1cnc(NC(=O)C2CC2)cc1Nc1cnn2ccc(C(C)C(F)(F)F)c(OC)c12 (centres unmarked) [Example 93, Methyl 6-(cyclopropanecarbonylamino)-4-[[4-methoxy-5-(2,2,2-trifluoro-1-methylethyl)pyrazolo[1,5-a]pyridin-3-yl]amino]pyridine-3-carboxylate] | 1.24 | 51.39 | 63.7 | 577 | – | – | –
16 | COCOc1cnc(NC(=O)C2CC2)cc1Nc1cnn2ccc([C@H](OC)C(F)(F)F)c(OC)c12 [Example 94, (S)-N-(4-((4-methoxy-5-(2,2,2-trifluoro-1-methoxyethyl)pyrazolo[1,5-a]pyridin-3-yl)amino)-5-(methoxymethoxy)pyridin-2-yl)cyclopropanecarboxamide] | 141 | 1.37 | 193 | – | 4630 | – | –
17 | COc1c([C@H](OC)C(F)(F)F)ccn2ncc(Nc3cc(NC(=O)C4CC4)ncc3OCC#N)c12 [Example 95, (S)-N-(5-(cyanomethoxy)-4-((4-methoxy-5-(2,2,2-trifluoro-1-methoxyethyl)pyrazolo[1,5-a]pyridin-3-yl)amino)pyridin-2-yl)cyclopropanecarboxamide] | 68.3 | >4.37 | > 298 | > 5000 | – | – | –
18 | COC(=O)c1c(Nc2nn(C)c3ccc(C(OC)C(F)(F)F)c(OC)c23)cc(NC(=O)C2CC2)nc1N (centres unmarked) [Example 96, Methyl 2-amino-6-(cyclopropanecarboxamido)-4-((4-methoxy-1-methyl-5-(2,2,2-trifluoro-1-methoxyethyl)-1H-indazol-3-yl)amino) nicotinate] | – | >3.19 | – | – | 2990 | 93.6 | > 298
19 | COC(=O)c1cnc2cc1Nc1cc(cc(-c3ccn(C)n3)c1OC)CCOCc1cccc(n1)N2 [Example 105, Methyl 10-methoxy-11-(1-methyl-1H-pyrazol-3-yl)-16-oxa-2,4,8,22-tetraazatetracyclo[16.3.1.1^{3,7}.1^{9,13}]tetracosa-1(22),3,5,7(24),9(23),10,12,18,20-nonaene-6-carboxylate] | 1.21 | 191.94 | 232 | 66.8 | – | – | –
20 | COC(=O)c1cnc(NC(=O)C2CC2)cc1Nc1n[nH]c2ccc(C(OC)C(F)(F)F)c(OC)c12 (centres unmarked) [Example 113, Methyl 6-(cyclopropanecarboxamido)-4-((4-methoxy-5-(2,2,2-trifluoro-1-methoxyethyl)-1H-indazol-3-yl)amino)nicotinate] | 0.258 | 288.80 | 74.5 | > 1000 | – | – | –
